Tests used:
[1] = biological target: D(1A) dopamine receptor (Homo sapiens, UniProt P21728); experiment: DRUGMATRIX: Dopamine D1 radioligand binding (ligand: [3H] SCH-23390); assay type: cell membranes, CHO, Membrane; conditions: cho; Not Active = under 50% inhibition at 10 µM
[2] = biological target: T1, 3-hydroxy-3-methylglutaryl-coenzyme A reductase (Homo sapiens, UniProt P04035); parameters: species or system Escherichia coli;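 also: enzyme inhibition assay of HMG-CoA reductase using radiolabeled [14C]HMG-CoA as substrate; in other assays of this panel Not Active means under 50% inhibition at 10 µM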
T1 sequence (P04035 whole entry): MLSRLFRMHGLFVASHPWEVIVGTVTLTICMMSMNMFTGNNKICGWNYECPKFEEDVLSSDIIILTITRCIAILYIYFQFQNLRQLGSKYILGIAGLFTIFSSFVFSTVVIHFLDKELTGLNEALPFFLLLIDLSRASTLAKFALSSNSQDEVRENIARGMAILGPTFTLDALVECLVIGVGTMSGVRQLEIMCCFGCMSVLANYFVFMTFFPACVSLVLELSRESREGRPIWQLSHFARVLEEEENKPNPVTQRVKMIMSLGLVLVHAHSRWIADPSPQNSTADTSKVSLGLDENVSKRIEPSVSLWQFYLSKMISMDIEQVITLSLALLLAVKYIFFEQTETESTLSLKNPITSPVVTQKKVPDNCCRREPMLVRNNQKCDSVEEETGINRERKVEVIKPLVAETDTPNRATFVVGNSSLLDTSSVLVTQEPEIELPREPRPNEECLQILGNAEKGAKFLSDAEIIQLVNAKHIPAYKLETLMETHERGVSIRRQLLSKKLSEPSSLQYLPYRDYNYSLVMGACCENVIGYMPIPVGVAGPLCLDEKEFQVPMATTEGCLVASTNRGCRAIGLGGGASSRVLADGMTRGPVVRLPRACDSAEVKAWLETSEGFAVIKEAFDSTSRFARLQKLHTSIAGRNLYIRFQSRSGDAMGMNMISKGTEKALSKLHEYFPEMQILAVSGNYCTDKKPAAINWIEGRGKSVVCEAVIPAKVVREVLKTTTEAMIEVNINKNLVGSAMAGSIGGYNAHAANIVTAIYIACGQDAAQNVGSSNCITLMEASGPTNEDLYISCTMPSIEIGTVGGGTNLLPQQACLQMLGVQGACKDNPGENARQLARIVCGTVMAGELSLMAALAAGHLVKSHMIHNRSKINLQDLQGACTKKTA

[3] = biological target: Matrix metalloproteinase-9 (Homo sapiens, UniProt P14780); experiment: biochemical; assay type: cell-based;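 also: inhibition of isolated MMP-9 enzyme activity toward a synthetic peptide substrate, from the DrugMatrix protease screening panel; in other assays of this panel Not Active means under 50% inhibition at 10 µM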
[4] = biological target: Tyrosine-protein kinase Lck (Homo sapiens, UniProt P06239); experiment: DRUGMATRIX: Protein Tyrosine Kinase, LCK enzyme inhibition (substrate: Poly(Glu:Tyr)); assay type: cell-based, Insect cells; conditions: insect cells; Not Active = under 50% inhibition at 10 µM
[5] = biological target: T2, Alpha-2A adrenergic receptor (Homo sapiens, UniProt P08913); assay type: cell membranes, Sf9, Membrane; conditions: for Ki: read-out: Ki; as to all read-outs here: in other assays of this panel Not Active means under 50% inhibition at 10 µM
T2 sequence (P08913 whole entry): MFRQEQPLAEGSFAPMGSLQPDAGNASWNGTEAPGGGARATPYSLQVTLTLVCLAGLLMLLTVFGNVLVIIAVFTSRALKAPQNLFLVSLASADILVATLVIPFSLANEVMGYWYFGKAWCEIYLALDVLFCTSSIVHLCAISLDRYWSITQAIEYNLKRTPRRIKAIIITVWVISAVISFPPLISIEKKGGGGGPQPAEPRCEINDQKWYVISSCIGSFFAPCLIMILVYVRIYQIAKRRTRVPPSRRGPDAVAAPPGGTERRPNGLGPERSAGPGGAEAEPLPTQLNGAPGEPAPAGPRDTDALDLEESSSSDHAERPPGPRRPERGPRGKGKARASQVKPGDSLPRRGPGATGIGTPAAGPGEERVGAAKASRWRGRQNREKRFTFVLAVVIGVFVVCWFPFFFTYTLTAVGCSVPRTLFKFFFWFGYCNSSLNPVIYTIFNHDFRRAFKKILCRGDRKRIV

[6] = biological target: Protein phosphatase 3 catalytic subunit alpha (Homo sapiens, UniProt Q08209); parameters: species or system Escherichia coli;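 also: inhibition of calcineurin (PP2B) enzyme activity, measured with DiFMUP as the substrate; in other assays of this panel Not Active means under 50% inhibition at 10 µM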
[7] = biological target: Estrogen receptor beta (Homo sapiens, UniProt Q92731); conditions: sf9; also: in other assays of this panel Not Active means under 50% inhibition at 10 µM
Estrogen receptor beta, sequence (Q92731 whole entry): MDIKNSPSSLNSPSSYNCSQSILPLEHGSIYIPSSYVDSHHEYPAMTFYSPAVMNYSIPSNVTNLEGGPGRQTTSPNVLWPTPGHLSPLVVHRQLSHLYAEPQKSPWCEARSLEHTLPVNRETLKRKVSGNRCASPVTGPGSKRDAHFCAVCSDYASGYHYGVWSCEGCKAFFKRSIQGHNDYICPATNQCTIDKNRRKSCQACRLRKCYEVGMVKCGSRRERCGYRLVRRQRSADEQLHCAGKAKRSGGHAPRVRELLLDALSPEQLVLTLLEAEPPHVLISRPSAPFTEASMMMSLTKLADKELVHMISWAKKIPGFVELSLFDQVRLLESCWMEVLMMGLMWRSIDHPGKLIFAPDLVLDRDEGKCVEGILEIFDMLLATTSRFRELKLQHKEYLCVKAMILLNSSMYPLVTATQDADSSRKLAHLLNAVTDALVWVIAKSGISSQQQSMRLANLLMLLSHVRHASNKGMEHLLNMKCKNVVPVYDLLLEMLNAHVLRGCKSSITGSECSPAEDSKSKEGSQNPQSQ

Tyrosine-protein kinase Lck, sequence (P06239 whole entry): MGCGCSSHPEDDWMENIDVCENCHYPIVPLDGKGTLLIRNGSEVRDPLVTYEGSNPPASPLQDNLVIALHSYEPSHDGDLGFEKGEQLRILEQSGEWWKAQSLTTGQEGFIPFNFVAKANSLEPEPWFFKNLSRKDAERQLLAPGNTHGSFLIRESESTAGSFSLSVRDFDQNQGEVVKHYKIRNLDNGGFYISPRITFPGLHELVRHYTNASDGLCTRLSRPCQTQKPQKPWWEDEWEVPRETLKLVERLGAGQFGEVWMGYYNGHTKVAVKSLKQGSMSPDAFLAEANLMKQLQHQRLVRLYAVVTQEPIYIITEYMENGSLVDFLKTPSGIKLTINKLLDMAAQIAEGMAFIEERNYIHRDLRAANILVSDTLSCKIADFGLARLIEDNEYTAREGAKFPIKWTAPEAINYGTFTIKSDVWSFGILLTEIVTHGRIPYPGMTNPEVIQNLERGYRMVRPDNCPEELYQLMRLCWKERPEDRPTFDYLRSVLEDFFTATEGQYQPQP
D(1A) dopamine receptor, sequence (P21728 whole entry): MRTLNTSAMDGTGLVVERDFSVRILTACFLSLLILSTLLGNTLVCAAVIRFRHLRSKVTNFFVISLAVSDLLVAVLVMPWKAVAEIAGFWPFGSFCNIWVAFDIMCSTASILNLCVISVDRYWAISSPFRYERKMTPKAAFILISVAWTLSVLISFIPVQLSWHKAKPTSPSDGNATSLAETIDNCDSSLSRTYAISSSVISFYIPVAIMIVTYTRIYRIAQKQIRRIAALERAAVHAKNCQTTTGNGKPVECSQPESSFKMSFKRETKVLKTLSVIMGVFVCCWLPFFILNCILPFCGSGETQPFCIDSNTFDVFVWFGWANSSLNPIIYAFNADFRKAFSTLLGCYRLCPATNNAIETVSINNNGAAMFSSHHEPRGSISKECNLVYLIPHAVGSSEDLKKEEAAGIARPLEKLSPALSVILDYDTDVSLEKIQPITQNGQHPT
Matrix metalloproteinase-9, sequence (P14780 whole entry): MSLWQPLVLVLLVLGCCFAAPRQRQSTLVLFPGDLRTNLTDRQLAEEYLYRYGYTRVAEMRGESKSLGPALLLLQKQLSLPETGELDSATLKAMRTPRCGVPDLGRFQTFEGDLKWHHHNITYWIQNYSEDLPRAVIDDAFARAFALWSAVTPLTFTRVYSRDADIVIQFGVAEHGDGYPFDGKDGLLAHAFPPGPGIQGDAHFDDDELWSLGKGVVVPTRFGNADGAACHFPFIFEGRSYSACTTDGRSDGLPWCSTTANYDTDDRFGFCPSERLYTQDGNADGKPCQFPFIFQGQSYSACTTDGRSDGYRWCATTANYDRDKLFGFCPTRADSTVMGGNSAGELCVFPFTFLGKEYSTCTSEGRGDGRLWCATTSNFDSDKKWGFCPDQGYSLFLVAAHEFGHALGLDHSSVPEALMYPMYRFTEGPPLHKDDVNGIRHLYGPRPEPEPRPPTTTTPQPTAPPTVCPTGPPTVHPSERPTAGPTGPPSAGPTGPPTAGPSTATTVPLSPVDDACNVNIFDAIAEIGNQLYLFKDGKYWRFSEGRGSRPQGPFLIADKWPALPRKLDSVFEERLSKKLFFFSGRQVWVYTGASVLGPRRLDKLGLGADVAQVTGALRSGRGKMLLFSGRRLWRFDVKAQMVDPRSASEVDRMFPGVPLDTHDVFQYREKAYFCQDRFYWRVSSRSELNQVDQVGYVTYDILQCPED

## CCS(=O)(=O)CCn1c([N+](=O)[O-])cnc1C [TINIDAZOLE]
[1]
  IC50: Not Active
[2]
  IC50: Not Active
[3]
  IC50: Not Active
[4]
  IC50: Not Active
[5]; sf9
  IC50: Not Active
[6]
  IC50: Not Active

## CC(=O)O[C@H]1C[C@@H]2CC[C@@H]3[C@H](CC[C@@]4(C)[C@H]3C[C@H]([N+]3(C)CCCCC3)[C@@H]4OC(C)=O)[C@@]2(C)C[C@@H]1N1CCCCC1.[Br-] [VECURONIUM BROMIDE]
[1]
  IC50: Not Active
[2]
  IC50: Not Active
[3]
  IC50: Not Active
[4]
  IC50: Not Active
[5]; sf9
  IC50: Not Active
[6]
  IC50: Not Active

## Cc1cn([C@H]2C[C@H](N=[N+]=[N-])[C@@H](CO)O2)c(=O)[nH]c1=O [ZIDOVUDINE]
[1]
  IC50: Not Active
[2]
  IC50: Not Active
[3]
  IC50: Not Active
[4]
  IC50: Not Active
[5]; sf9
  IC50: Not Active
[6]
  IC50: Not Active

## CN1C2CCCC1CC(NC(=O)c1nn(C)c3ccccc13)C2 (stereo unspecified) [GRANISETRON]
[7]
  IC50: Not Active
[2]
  IC50: Not Active
[3]
  IC50: Not Active
[4]
  IC50: Not Active
[5]; sf9
  IC50: Not Active
[6]
  IC50: Not Active

## CC(C)OC(=O)C(C)(C)Oc1ccc(C(=O)c2ccc(Cl)cc2)cc1 [FENOFIBRATE]
[7]
  IC50: Not Active
[2]
  IC50: Not Active
[3]
  IC50: Not Active
[4]
  IC50: Not Active
[5]; sf9
  IC50: Not Active
[6]
  IC50: Not Active

## C=C(C)[C@H]1Cc2c(ccc3c2O[C@@H]2COc4cc(OC)c(OC)cc4[C@@H]2C3=O)O1 [ROTENONE]
[1]
  IC50: Not Active
[2]
  IC50: Not Active
[3]
  IC50: Not Active
[4]
  IC50: Not Active
[5]; sf9
  IC50: Not Active
[6]
  IC50: Not Active

## Nc1ccc(S(=O)(=O)Nc2nccs2)cc1 [SULFATHIAZOLE]
[1]
  IC50: Not Active
[2]
  IC50: Not Active
[3]
  IC50: Not Active
[4]
  IC50: Not Active
[5]; sf9
  IC50: Not Active
[6]
  IC50: Not Active

## OCCN1CCN(CCCN2c3ccccc3Sc3ccc(C(F)(F)F)cc32)CC1 [FLUPHENAZINE]
[7]
  IC50: Not Active
[2]
  IC50: Not Active
[3]
  IC50: Not Active
[4]
  IC50: Not Active
[5]; read-out: IC50
  IC50: 215 nM
[5]
  Ki: 80 nM
[6]
  IC50: Not Active

## CC[C@@H](CO)NC(=O)[C@@H]1C=C2c3cccc4c3c(cn4C)C[C@H]2N(C)C1 [METHYSERGIDE]
[7]
  IC50: Not Active
[2]
  IC50: Not Active
[3]
  IC50: Not Active
[4]
  IC50: Not Active
[5]; read-out: IC50
  IC50: 1630 nM
[5]
  Ki: 611 nM
[6]
  IC50: Not Active

## CCCc1nn(C)c2c(=O)[nH]c(-c3cc(S(=O)(=O)N4CCN(C)CC4)ccc3OCC)nc12
[1]
  IC50: Not Active
[2]
  IC50: Not Active
[3]
  IC50: Not Active
[4]
  IC50: Not Active
[5]; sf9
  IC50: Not Active
[6]
  IC50: Not Active

## CN[C@@H]1[C@H](O)[C@H](NC)[C@H]2O[C@@]3(O)C(=O)C[C@@H](C)O[C@H]3O[C@@H]2[C@H]1O [SPECTINOMYCIN]
[1]
  IC50: Not Active
[2]
  IC50: Not Active
[3]
  IC50: Not Active
[4]
  IC50: Not Active
[5]; sf9
  IC50: Not Active
[6]
  IC50: Not Active

## CC(C)(C)NC[C@H](O)COc1nsnc1N1CCOCC1 [TIMOLOL]
[1]
  IC50: Not Active
[2]
  IC50: Not Active
[3]
  IC50: Not Active
[4]
  IC50: Not Active
[5]; sf9
  IC50: Not Active
[6]
  IC50: Not Active

## O=P(O)(O)C(O)(Cc1cccnc1)P(=O)(O)O [RISEDRONIC ACID]
[1]
  IC50: Not Active
[2]
  IC50: Not Active
[3]
  IC50: Not Active
[4]
  IC50: Not Active
[5]; sf9
  IC50: Not Active
[6]
  IC50: Not Active

## O=c1[nH]c2ccccc2n1CCCN1CCC(n2c(=O)[nH]c3cc(Cl)ccc32)CC1 [DOMPERIDONE]
[7]
  IC50: Not Active
[2]
  IC50: Not Active
[3]
  IC50: Not Active
[4]
  IC50: Not Active
[6]
  IC50: Not Active

## O=c1n(CCCN2CCN(c3cccc(Cl)c3)CC2)nc2ccccn12 [TRAZODONE]
[2]
  IC50: Not Active
[3]
  IC50: Not Active
[4]
  IC50: Not Active
[6]
  IC50: Not Active

## CCOC(N)=O
[1]
  IC50: Not Active
[2]
  IC50: Not Active
[3]
  IC50: Not Active
[4]
  IC50: Not Active
[5]; sf9
  IC50: Not Active
[6]
  IC50: Not Active

## O=C(O)C(Cl)(Cl)Cl [TRICHLOROACETIC ACID]
[1]
  IC50: Not Active
[2]
  IC50: Not Active
[3]
  IC50: Not Active
[4]
  IC50: Not Active
[5]; sf9
  IC50: Not Active
[6]
  IC50: Not Active

Reference: ChEMBL document CHEMBL1909046, “DrugMatrix in vitro pharmacology data”
